According to ChEMBL document CHEMBL2046362, “Synthesis and evaluation of novel potent HCV NS5A inhibitors” (Bioorg Med Chem Lett, 2012):

Legend:
[1] = biological target: T1, Nonstructural protein 5A (Hepatitis C virus) (UniProt Q5L478); test: Inhibition of HCV NS5A assessed as antiviral activity against HCV by viral replicon assay; conditions: Hepacivirus hominis
T1 sequence (whole entry): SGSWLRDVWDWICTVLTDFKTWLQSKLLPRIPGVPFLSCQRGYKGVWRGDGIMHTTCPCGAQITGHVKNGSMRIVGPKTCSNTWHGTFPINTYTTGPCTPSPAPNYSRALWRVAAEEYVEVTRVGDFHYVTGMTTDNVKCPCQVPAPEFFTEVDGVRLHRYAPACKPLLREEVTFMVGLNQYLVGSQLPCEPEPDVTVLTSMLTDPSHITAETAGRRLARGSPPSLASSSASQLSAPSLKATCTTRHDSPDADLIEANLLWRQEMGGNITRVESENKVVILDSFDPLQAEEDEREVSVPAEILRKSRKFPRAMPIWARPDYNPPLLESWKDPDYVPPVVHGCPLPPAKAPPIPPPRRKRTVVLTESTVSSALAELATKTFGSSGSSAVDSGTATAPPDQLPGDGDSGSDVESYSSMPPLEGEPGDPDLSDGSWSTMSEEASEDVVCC

[2] = Cytotoxicity against human HuH7 cells; type: cell-based, Huh-7
[3] = test system: PBMC; test: Cytotoxicity against human PBMC cells; type: cell-based; conditions: pbmc
[4] = test system: CCRF-CEM; test: Cytotoxicity against human CEM cells; type: cell-based
[5] = test system: Vero; test: Cytotoxicity against african green monkey Vero cells; type: cell-based; conditions: chlorocebus sabaeus
[6] = Cytotoxicity against human primary lymphocytes; type: cell-based; conditions: lymphocyte
[7] = Chemical stability in phosphate buffer assessed as compound degradation at pH 7 at 20 degC measured between 2 to 48 hrs during 48 hrs incubation period; type: physicochemical; conditions: pH 7, 48 h
[8] = test system: Liver microsomes; test: Half life in human liver microsomes at 1 uM measured 5 to 60 mins post dose by LC-MS/MS nethod; type: ADME, Microsome
[9] = test system: Liver microsomes; test: Intrinsic clearance in human liver microsomes assessed per mg protein at 1 uM measured 5 to 60 mins post dose by LC-MS/MS nethod; type: ADME, Microsome
[10] = Chemical stability in phosphate buffer assessed as compound degradation at pH 3 at 20 degC measured between 1 to 48 hrs during 48 hrs incubation period; conditions: pH 3, 48 h
[11] = biological target: T2, CYP1A2 (Homo sapiens, UniProt P05177); test: (§1) Inhibition of CYP1A2; type: ADME
T2 sequence (P05177 whole entry): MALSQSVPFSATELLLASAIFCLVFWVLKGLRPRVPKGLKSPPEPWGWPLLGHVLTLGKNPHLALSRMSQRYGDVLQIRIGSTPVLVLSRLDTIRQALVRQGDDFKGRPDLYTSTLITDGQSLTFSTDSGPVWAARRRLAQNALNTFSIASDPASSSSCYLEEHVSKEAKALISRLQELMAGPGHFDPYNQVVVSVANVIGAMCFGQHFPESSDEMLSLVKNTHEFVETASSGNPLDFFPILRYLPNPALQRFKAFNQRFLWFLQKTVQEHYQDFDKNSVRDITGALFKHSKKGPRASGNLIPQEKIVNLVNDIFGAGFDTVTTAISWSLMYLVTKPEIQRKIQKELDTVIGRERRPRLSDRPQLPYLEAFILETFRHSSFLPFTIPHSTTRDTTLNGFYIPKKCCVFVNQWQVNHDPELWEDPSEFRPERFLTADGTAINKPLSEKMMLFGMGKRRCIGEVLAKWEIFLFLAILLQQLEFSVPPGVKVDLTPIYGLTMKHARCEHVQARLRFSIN

[12] = biological target: T3, Cytochrome P450 1A2 (Homo sapiens, UniProt P05177); test: as §1; type: ADME
T3 sequence (P05177 whole entry): T2 sequence (P05177 whole entry)

[13] = biological target: CYP3A4 (Homo sapiens, UniProt P08684); test: (§2) Inhibition of CYP3A4; type: ADME
Sequence of CYP3A4 (P08684 whole entry): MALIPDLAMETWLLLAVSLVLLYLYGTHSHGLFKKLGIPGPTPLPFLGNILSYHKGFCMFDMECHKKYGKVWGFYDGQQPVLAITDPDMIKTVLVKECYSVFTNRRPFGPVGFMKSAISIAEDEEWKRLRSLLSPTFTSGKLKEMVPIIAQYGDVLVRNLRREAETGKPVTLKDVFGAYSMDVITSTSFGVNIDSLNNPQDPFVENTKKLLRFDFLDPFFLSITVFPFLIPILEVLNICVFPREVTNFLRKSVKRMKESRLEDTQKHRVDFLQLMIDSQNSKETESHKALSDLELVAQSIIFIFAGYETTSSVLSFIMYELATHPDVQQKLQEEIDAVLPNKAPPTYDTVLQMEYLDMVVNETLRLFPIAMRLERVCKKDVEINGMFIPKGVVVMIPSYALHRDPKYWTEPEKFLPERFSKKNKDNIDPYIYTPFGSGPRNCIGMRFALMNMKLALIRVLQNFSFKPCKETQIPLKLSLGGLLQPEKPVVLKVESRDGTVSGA

[14] = biological target: Cytochrome P450 3A4 (Homo sapiens, UniProt P08684); test: as §2; type: ADME
Sequence of Cytochrome P450 3A4 (P08684 whole entry): as above

[15] = biological target: CYP2D6 (Homo sapiens, UniProt P10635); test: (§3) Inhibition of CYP2D6; type: ADME
Sequence of CYP2D6 (P10635 whole entry): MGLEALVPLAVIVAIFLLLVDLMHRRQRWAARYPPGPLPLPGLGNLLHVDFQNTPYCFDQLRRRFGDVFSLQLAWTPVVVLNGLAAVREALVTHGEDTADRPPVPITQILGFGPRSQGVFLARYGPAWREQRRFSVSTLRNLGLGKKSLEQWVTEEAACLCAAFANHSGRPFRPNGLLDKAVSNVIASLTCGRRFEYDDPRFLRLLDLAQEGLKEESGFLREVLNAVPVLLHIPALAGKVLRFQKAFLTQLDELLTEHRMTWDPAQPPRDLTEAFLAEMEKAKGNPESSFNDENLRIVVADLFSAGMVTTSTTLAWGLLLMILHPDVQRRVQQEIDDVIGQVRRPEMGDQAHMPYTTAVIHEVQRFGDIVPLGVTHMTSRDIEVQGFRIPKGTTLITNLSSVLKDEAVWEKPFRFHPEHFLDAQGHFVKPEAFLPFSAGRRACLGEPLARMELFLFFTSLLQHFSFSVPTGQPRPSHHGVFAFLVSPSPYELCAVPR

[16] = biological target: Cytochrome P450 2D6 (Homo sapiens, UniProt P10635); test: as §3; type: ADME
Sequence of Cytochrome P450 2D6 (P10635 whole entry): as above

[17] = biological target: CYP2C9 (Homo sapiens, UniProt P11712); test: (§4) Inhibition of CYP2C9; type: ADME
Sequence of CYP2C9 (P11712 whole entry): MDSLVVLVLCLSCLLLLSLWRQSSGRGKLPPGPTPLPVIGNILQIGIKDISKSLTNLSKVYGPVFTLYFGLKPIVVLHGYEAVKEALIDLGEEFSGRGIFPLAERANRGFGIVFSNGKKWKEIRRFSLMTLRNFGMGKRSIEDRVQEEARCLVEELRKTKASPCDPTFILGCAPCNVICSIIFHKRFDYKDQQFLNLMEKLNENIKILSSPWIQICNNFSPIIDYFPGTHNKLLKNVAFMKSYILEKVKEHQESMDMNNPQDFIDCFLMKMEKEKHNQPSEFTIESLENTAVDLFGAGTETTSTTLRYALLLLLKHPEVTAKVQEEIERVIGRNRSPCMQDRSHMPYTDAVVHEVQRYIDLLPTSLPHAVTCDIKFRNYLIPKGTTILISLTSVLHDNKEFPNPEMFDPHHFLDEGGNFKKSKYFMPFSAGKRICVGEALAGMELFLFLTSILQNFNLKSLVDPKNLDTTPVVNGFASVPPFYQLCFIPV

[18] = biological target: Cytochrome P450 2C9 (Homo sapiens, UniProt P11712); test: as §4; type: ADME
Sequence of Cytochrome P450 2C9 (P11712 whole entry): as above

Row | Compound | EC90 [1] [pM] | CC50 [2] [µM] | CC50 [3] [µM] | CC50 [4] [µM] | CC50 [5] [µM] | other results
1 | COC(=O)N[C@H](C(=O)N1CCC[C@H]1c1nc(-c2ccccc2)c(-c2ccc(-c3ccc(-c4[nH]c([C@@H]5CCCN5C(=O)[C@@H](NC(=O)OC)C(C)C)nc4-c4ccccc4)cc3)cc2)[nH]1)C(C)C | 700 | > 1 | > 100 | 37.4 | > 100 | 
2 | COC(=O)N[C@H](C(=O)N1CCC[C@H]1c1ncc(-c2ccc(-c3ccc(-c4[nH]c([C@@H]5CCCN5C(=O)[C@@H](NC(=O)OC)C(C)C)nc4F)cc3)cc2)[nH]1)C(C)C | 52.5 | > 1 | 16 | 2.8 | 83 | 
3 | COC(=O)N[C@H](C(=O)N1CCC[C@H]1c1nc(-c2cccs2)c(-c2ccc(-c3ccc(-c4[nH]c([C@@H]5CCCN5C(=O)[C@@H](NC(=O)OC)C(C)C)nc4-c4cccs4)cc3)cc2)[nH]1)C(C)C | 300 | > 1 | 44.6 | > 100 | > 100 | 
4 | COC(=O)N[C@H](C(=O)N1CCC[C@H]1c1nc(I)c(-c2ccc(-c3ccc(-c4[nH]c([C@@H]5CCCN5C(=O)[C@@H](NC(=O)OC)C(C)C)nc4I)cc3)cc2)[nH]1)C(C)C | 11 | > 1 | 4.7 | 35 | > 100 | Activity [6]: Toxic; Stability [7]: Stable; t1/2 [8]: 0.642 h; CLint [9]: 18 µL/min/mg; Stability [10]: Stable
5 | COC(=O)N[C@H](C(=O)N1C[C@H](N=[N+]=[N-])C[C@H]1c1nc(Cl)c(-c2ccc(-c3ccc(-c4[nH]c([C@@H]5C[C@@H](N=[N+]=[N-])CN5C(=O)[C@@H](NC(=O)OC)C(C)C)nc4Cl)cc3)cc2)[nH]1)C(C)C | 9.6 | > 1 | 7.8 | 3.8 | > 100 | 
6 | COC(=O)N[C@H](C(=O)N1C[C@@H](n2cc(C(=O)OC)nn2)C[C@H]1c1ncc(-c2ccc(-c3ccc(-c4cnc([C@@H]5C[C@H](n6cc(C(=O)OC)nn6)CN5C(=O)[C@@H](NC(=O)OC)C(C)C)[nH]4)cc3)cc2)[nH]1)C(C)C | > 10000 | > 1 | > 100 | > 100 |  | 
7 | COC(=O)N[C@H](C(=O)N1C[C@H](n2cc(C(=O)OC)nn2)C[C@H]1c1ncc(-c2ccc(-c3ccc(-c4cnc([C@@H]5C[C@@H](n6cc(C(=O)OC)nn6)CN5C(=O)[C@@H](NC(=O)OC)C(C)C)[nH]4)cc3)cc2)[nH]1)C(C)C | 42.8 | > 1 | 6.6 | 10.7 | > 100 | 
8 | COC(=O)N[C@H](C(=O)N1CCC[C@H]1c1nc(F)c(-c2ccc(-c3ccc(-c4[nH]c([C@@H]5CCCN5C(=O)[C@@H](NC(=O)OC)C(C)C)nc4F)cc3)cc2)[nH]1)C(C)C | 21.2 | > 1 | 19 | 3 | > 100 | Activity [6]: Toxic; Stability [7]: Stable; t1/2 [8]: 2.063 h; CLint [9]: 5.6 µL/min/mg; IC90 [11]: > 100 µM; IC50 [12]: > 100 µM; IC90 [13]: > 100 µM; IC50 [14]: 3.1 µM; IC90 [15]: > 100 µM; IC50 [16]: > 100 µM; IC90 [17]: > 100 µM; IC50 [18]: > 100 µM; Stability [10]: Stable
9 | COC(=O)N[C@H](C(=O)N1CCC[C@H]1c1nc(Cl)c(-c2ccc(-c3ccc(-c4[nH]c([C@@H]5CCCN5C(=O)[C@@H](NC(=O)OC)C(C)C)nc4Cl)cc3)cc2)[nH]1)C(C)C | 11.4 | > 1 | 2.8 | 12 | 100 | Stability [7]: Stable; t1/2 [8]: 1.992 h; CLint [9]: 5.8 µL/min/mg; IC90 [11]: > 100 µM; IC50 [12]: > 100 µM; IC90 [13]: > 100 µM; IC50 [14]: 13.8 µM; IC90 [15]: > 100 µM; IC50 [16]: > 100 µM; IC90 [17]: > 100 µM; IC50 [18]: 81.6 µM; Stability [10]: Stable
10 | COC(=O)N[C@H](C(=O)N1C[C@H](N=[N+]=[N-])C[C@H]1c1nc(Br)c(-c2ccc(-c3ccc(-c4[nH]c([C@@H]5C[C@@H](N=[N+]=[N-])CN5C(=O)[C@@H](NC(=O)OC)C(C)C)nc4Br)cc3)cc2)[nH]1)C(C)C | 21.6 | > 1 | 19.8 | 10.8 | > 100 | 
11 | COC(=O)N[C@H](C(=O)N1CCC[C@H]1c1nc(Br)c(-c2ccc(-c3ccc(-c4[nH]c([C@@H]5CCCN5C(=O)[C@@H](NC(=O)OC)C(C)C)nc4Br)cc3)cc2)[nH]1)C(C)C | 14 | > 1 | 2.9 | 5.7 | 84 | Stability [7]: Stable; t1/2 [8]: 1.12 h; CLint [9]: 10.3 µL/min/mg; Stability [10]: Stable
12 | COC(=O)N[C@H](C(=O)N1CCC[C@H]1c1ncc(-c2ccc(-c3ccc(-c4cnc([C@@H]5CCCN5C(=O)[C@@H](NC(=O)OC)C(C)C)[nH]4)cc3)cc2)[nH]1)C(C)C | 20 |  |  |  |  | 
13 | COC(=O)N[C@H](C(=O)N1CCC[C@H]1c1nc(-c2ccco2)c(-c2ccc(-c3ccc(-c4[nH]c([C@@H]5CCCN5C(=O)[C@@H](NC(=O)OC)C(C)C)nc4-c4ccco4)cc3)cc2)[nH]1)C(C)C | 97 | > 1 | 49.2 | 2.9 | > 100 | 
14 | COC(=O)N[C@H](C(=O)N1CCC[C@H]1c1nc(-c2ccc(-c3ccc(-c4c[nH]c([C@@H]5CCCN5C(=O)[C@@H](NC(=O)OC)C(C)C)n4)cc3)cc2)c[nH]1)C(C)C |  | > 1 |  |  |  | t1/2 [8]: 0.938 h; IC50 [18]: 59.5 µM
15 | COC(=O)N[C@H](C(=O)N1C[C@@H](N=[N+]=[N-])C[C@H]1c1ncc(-c2ccc(-c3ccc(-c4cnc([C@@H]5C[C@H](N=[N+]=[N-])CN5C(=O)[C@@H](NC(=O)OC)C(C)C)[nH]4)cc3)cc2)[nH]1)C(C)C | 35.2 | > 1 | 20.3 | 18.4 | > 100 | 
16 | COC(=O)N[C@H](C(=O)N1C[C@H](n2cc(-c3ccccc3)nn2)C[C@H]1c1ncc(-c2ccc(-c3ccc(-c4cnc([C@@H]5C[C@@H](n6cc(-c7ccccc7)nn6)CN5C(=O)[C@@H](NC(=O)OC)C(C)C)[nH]4)cc3)cc2)[nH]1)C(C)C | 9200 | > 1 | > 100 | > 100 |  | 
17 | COC(=O)N[C@H](C(=O)N1C[C@@H](N=[N+]=[N-])C[C@H]1c1nc(Cl)c(-c2ccc(-c3ccc(-c4[nH]c([C@@H]5C[C@H](N=[N+]=[N-])CN5C(=O)[C@@H](NC(=O)OC)C(C)C)nc4Cl)cc3)cc2)[nH]1)C(C)C | 74.6 | > 1 | 3.3 | 4 | 98.1 | 
18 | COC(=O)N[C@H](C(=O)N1C[C@H](N=[N+]=[N-])C[C@H]1c1ncc(-c2ccc(-c3ccc(-c4[nH]c([C@@H]5C[C@@H](N=[N+]=[N-])CN5C(=O)[C@@H](NC(=O)OC)C(C)C)nc4Cl)cc3)cc2)[nH]1)C(C)C | 29.5 | > 1 | 9.7 | 31 | > 100 | 
19 | COC(=O)N[C@H](C(=O)N1C[C@@H](n2cc(-c3ccccc3)nn2)C[C@H]1c1ncc(-c2ccc(-c3ccc(-c4cnc([C@@H]5C[C@H](n6cc(-c7ccccc7)nn6)CN5C(=O)[C@@H](NC(=O)OC)C(C)C)[nH]4)cc3)cc2)[nH]1)C(C)C | > 10000 | > 1 | 96 |  | > 100 | 
20 | COC(=O)N[C@H](C(=O)N1C[C@@H](N=[N+]=[N-])C[C@H]1c1nc(Br)c(-c2ccc(-c3ccc(-c4[nH]c([C@@H]5C[C@H](N=[N+]=[N-])CN5C(=O)[C@@H](NC(=O)OC)C(C)C)nc4Br)cc3)cc2)[nH]1)C(C)C | 55.3 | > 1 | 3.4 | 4.5 |  | 
